Here are results for 2 compounds from patent publication US10765670B2, “Use of anti-connexin agents for enhancing the therapeutic effect of acetylcholinesterase inhibitors” (COMMISSARIAT A L'ENERGIE ATOMIQUE ET AUX ENERGIES …, priority 2011, dated 2020).

Marks after values point to notes of the source that are not given here.

The test system of experiment [1] is male C57bl/6 mice. In words: Electro-encephalographic recording of hippocampal theta activity in mice. Type of experiment: in vivo. The settings on record: for EEG Relative power to vehicles (relative power of hippocampal theta rhythm): n=7. How it is done:
Electrophysiological effects of donepezil were evaluated by analysis of hippocampal electroencephalographic activity (EEG) as described previously in WO2010/029131. Briefly, the assay is as follows:
Two groups of male C57bl/6 mice (seven mice from 4 to 5 month old and seven mice from 17 to 18 month old) were pre-implanted with bilateral hippocampal bipolar electrodes under isoflurane anaesthesia. A two-week period of recovery was realized before recordings.
Different intraperitoneal treatments were performed by circular combination of 7 mice per treatment (donepezil 0.1 and 0.3 mg/kg, meclofenamic 1 mg/kg, donepezil 0.1 mg/kg+MFA 1 mg/kg).
EEG measures were performed on different batches of awoke mice (previously implanted and tamed) by recordings two hours after injection. The spectral analysis is carried out by Fourier transform (FFT) and allows the calculation of the relative powers for each Hertz and each second. FFT data are then averaged minute by minute and reported to control solvent recording realized on the day before in strictly identical experimental conditions. The spectral powers of two hippocampal electrodes are then averaged between 3 and 12 Hertz and represented hourly.
At day 1, saline was administered intraperitoneally to “adult” or “elderly” mice (n=7), and θ-hippocampal activity was measured for two consecutive hours. On day 2, donepezil alone or in combination with MFA is injected, and θ-hippocampal activity is related to that measured on day 1.

For experiment [2] the following is noted: Wagner C. et al 2007; cited from earlier work.
Experiment [3] concerns rodents. The settings on record: MFA 1 mg/kg, previously described; cited from earlier work.
Experiment [4] deals with C57bl/6 male mice, 17-18-month old. In words: Behavioral test of working memory, T-maze spontaneous alternation (SA-task) in elderly mice. The class given is in vivo. The settings on record: for promnesiant effect (increase of total alternation, FIG. 2) / total alternation in T-maze (FIG. 2): elderly mice; for SA-task relative to vehicles (mean percentage of alternation relative to vehicles over the seven trials): 30 min before T-maze, 17-18-month old mice. From the text: The alternating sequential test is widely used to assess spatial working memory in mice (Beracochea D. J. and Jaffard R., Behav. Neurosci. 101 (1987) 187-97). Spontaneous alternation is the innate tendency of rodents to alternate their choices to enter into the compartments of arrival of a T-maze device, over successive trials. To alternate during a given trial N, the animal must remember the choice made selectively in test N−1, so the decline in alternating will reflect the phenomenon of oblivion. The response in alternating is performance measure. Sequential alternating assess more specifically the sensitivity to interference, a major factor in oblivion.
The experiment took place in a T-maze (50 cm×10 cm×25 cm). All the subjects (C57bl/6 male mice, 17-18-month old, n=9) were given 7 successive trials separated by a 90-s intertrial interval. To begin a trial, the mouse was placed in the start box for 90 s before the door to the stem was opened. When the subject entered one of the goal arms, the door to that arm was closed. The chosen arm and the time that elapsed between opening the door and the arrival to the end of the chosen arm (task achievement time) were registered. Following a 30-s confinement period in the chosen arm, the animal was removed and placed in the start box for a new trial. Between each test, the unit was cleaned with water and alcohol to avoid olfactory detection. An alternation response was considered each time the subject entered the arm opposite to the one visited on the immediately previous trial. Alternation rate was calculated taking into account the 6 successive trials, and expressed in percentage relative to the maximal alternation rate of 100% (obtained when the subject never returned into the same arm for two consecutive trials).
C57BL/6 mice of 17 to 18 months (“elderly” mice) were intraperitoneally injected with a solution of NaCl (vehicle), donepezil (DZP), meclofenamic acid (MFA) or a combination of these two latter compounds, 30 minutes before T-maze experiment.
Thirty minutes after treatment (NaCl, donepezil, MFA), “elderly” mice are placed in the T-maze device. The percentage of alternation was measured for 7 consecutive trials, 50% corresponding to a random alternation.

For the compound `Cc1ccc(Cl)c(Nc2ccccc2C(=O)O)c1Cl` [MFA, Benzoic 2-[(2,6-di-chloro-3-phenyl)amino] acid], the “effect on EEG (θ-hippocampal activity)” value in experiment [1] (MFA alone 1 mg/kg i.p.) is “no effect by its own”. In addition, the “dose at which the anti-inflammatory effect is observed in vivo” value in experiment [2] was “approximately 5 mg/kg/day”. Moreover, in experiment [3], the “effect on the electroencephalographic signal” value was “not affecting the electroencephalographic signal”. Also, in experiment [4] (MFA alone 1 mg/kg i.p.), the “promnesiant effect (increase of total alternation, FIG. 2)” value is “no promnesiant effect significant”. Besides, in experiment [4] (MFA alone 1 mg/kg i.p., three blocks of trials), the “alternation by blocks of two trials (FIG. 3)” value is “no significant effect”.
Take `COc1cc2c(cc1OC)C(=O)C(CC1CCN(Cc3ccccc3)CC1)C2` (stereo not drawn) [donepezil, 2,3-dihydro-5,6-dimethoxy-2-[[1-(phenylmethyl)-4-piperidinyl]methyl]-1H-i-nden-1-one]: the “response of θ-hippocampal activity (FIG. 1)” value is on record as “do not respond significantly” in experiment [1] (4-5-month old mice, donepezil 0.1 mg/kg i.p.); “do not respond significantly” in experiment [1] (4-5-month old mice, donepezil 0.3 mg/kg i.p.); “an effect” in experiment [1] (17-18-month old mice, donepezil 0.3 mg/kg i.p., second hour of recording). Besides, the “EEG Relative power to vehicles (relative power of hippocampal theta rhythm)” value in experiment [1] (donepezil 0.1 mg/kg intraperitoneal) and in experiment [1] (donepezil 0.3 mg/kg intraperitoneal) was 1 throughout. For the same compound, the “SA-task relative to vehicles (mean percentage of alternation relative to vehicles over the seven trials)” value in experiment [4] (donepezil 0.1 mg/kg i.p.) is given as 35%; in experiment [4] (donepezil 0.3 mg/kg i.p., p<0.01), 48%**. Moreover, the results for the “promnesiant effect (increase of total alternation, FIG. 2)” value in experiment [4] (donepezil 0.1 mg/kg i.p.), in experiment [4] (donepezil 0.3 mg/kg i.p.) and in experiment [4] (donepezil 1 mg/kg i.p.) were “no significant promnesiant effect”, “significant promnesiant effect” and “significant promnesiant effect”, respectively. Besides, the “alternation by blocks of two trials (FIG. 3), memory interference” value in experiment [4] (donepezil 0.1 mg/kg i.p., third block (trials 6 and 7)) is listed as “partially counteract the interference phenomenon”. Moreover, the “total alternation in T-maze (FIG. 2)” value in experiment [4] (donepezil alone 0.3 mg/kg i.p.) and in experiment [4] (donepezil alone 1 mg/kg i.p.) was “around 75%” in each case.
